{"source": "patent US20230257480A1", "about": "“ENHANCING BLOOD-BRAIN BARRIER DRUG TRANSPORT BY TARGETING ENDOGENOUS REGULATORS” (THE BOARD OF TRUSTEES OF THE LELAND STANFORD JUNIOR …, priority 2019, published 2023)", "tested_on": "brain endothelial cells", "test": "Flow cytometry of brain endothelial cell uptake of tracer after ALPL inhibitor treatment", "assay_type": "in vivo, mice", "settings": "Atto 647N-labeled plasma, vs vehicle", "excerpt": "FIGS. 14A-14D are graphs illustrating flow cytometry quantification of brain endothelial cell uptake of plasma from young mice (3 m.o.) (FIG. 14A), plasma from aged mice (22 m.o.) (FIG. 14B), human holo-transferrin (hu-Tf) from aged mice (FIG. 14C), or transferrin receptor antibody (TfR Ab) from aged mice (FIG. 14D) treated with vehicle (grey) or anti-ALPL (green) via IP injections twice daily for three days, as assessed by % of BECs that are tracer^+ and relative MFI of tracer^+ BECs (for plasma, n=4; for hu-Tf, n=6 vehicle, n=5 anti-ALPL; for TfR Ab, n=9, two-sided t-test, mean+/−s.e.m.). Tracer refers to plasma, hu-Tf, or TfR Ab. FIG. 14E includes representative images of hu-Tf^+ neurons detected in the cortex of mice treated with ALPL inhibitor. Scale bar=40 microns. […] FIG. 14H includes graphs illustrating flow cytometry quantification of brain endothelial cell and brain parenchymal cell uptake of 3 kDa dextran tracer, which probes for disruptions in paracellular permeability, in young mice (3 m.o.) and aged mice (22 m.o.) (n=6 vehicle, n=5 anti-ALPL, two-sided t-test, mean+/−s.e.m.).\nCNS cell isolation adopted previously described methods42,139,140. […] For analysis of plasma uptake, at least 1,000 cells of each population of interest were analyzed per sample. […]"}
{"smiles": "COc1ccc(OC)c(S(=O)(=O)Nc2cnc3ccccc3c2)c1", "note": "[ALPL inhibitor, 2,5-Dimethoxy-N-(quinolin-3-yl)benzenesulfonamide]", "values": [{"measurement": "plasma uptake in brain endothelial cells, aged mice", "setting": "aged (22 m.o.) mice", "result": "increased"}, {"measurement": "plasma uptake in brain endothelial cells, young mice", "setting": "young (3 m.o.) mice", "result": "increased"}]}
